Measured values as given in US4015974A, “Amido phosphorothiolates” (priority 1972, dated 1977).

How the values were obtained:
Assay type in all cases: in vivo
[1] = tested on: common lambsquarter (Chenopodium album); test: Pre-emergence application, herbicidal effect on common lambsquarter (Table 1); design: key: 0: not damaged; 5: completely killed; details: 20 days after application, score 0-5
Outline: (§1)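 Steps: sow seeds individually in pots about 10 cm across; cover with soil; apply test compound as water-diluted wettable powder to the soil; grow in greenhouse; rate herbicidal effect at day 20 on a 0–5 scale (5 = completely killed).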

[2] = tested on: barnyard grass (Echinochloa crus-galli); test: Pre-emergence application, herbicidal effect on barnyard grass (Table 1); design: key: 0: not damaged; 5: completely killed; details: 20 days after application, score 0-5
Outline: as §1

[3] = tested on: common purslane (Portulaca oleracea); test: Pre-emergence application, herbicidal effect on common purslane (Table 1); design: key: 0: not damaged; 5: completely killed; details: 20 days after application, score 0-5
Outline: as §1

[4] = tested on: redroot pigweed (Amaranthus retroflexus); test: Pre-emergence application, herbicidal effect on redroot pigweed (Table 1); design: key: 0: not damaged; 5: completely killed; details: 20 days after application, score 0-5
Outline: as §1

[5] = tested on: barnyard grass (Echinochloa crus-galli); test: Water application, herbicidal effect on barnyard grass (Table 2); design: key: 0: not damaged; 5: completely killed; details: 25 days, score 0-5
Outline: (§2)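 Flooded paddy soil, 3-leaf rice transplants, sown barnyard grass, spontaneous broadleaf weeds; WP formulation, water-lodged soil application; 0–5 visual rating, day 25.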

[6] = tested on: large crabgrass (Digitaria sanguinalis); test: Pre-emergence application, herbicidal effect on large crabgrass (Table 1); design: key: 0: not damaged; 5: completely killed; details: 20 days after application, score 0-5
Outline: as §1

radish = test: Pre-emergence application, herbicidal effect on radish (Table 1); design: key: 0: not damaged; 5: completely killed; details: 20 days after application, score 0-5
Outline: as §1

[7] = tested on: broad-leaved weeds, e.g., monochoria, false pimpernel and toothcup; test: Water application, herbicidal effect on broad-leaved weeds (Table 2); design: key: 0: not damaged; 5: completely killed; details: 25 days, score 0-5
Outline: as §2

rice = test: Water application, phytotoxicity on rice (Table 2); design: key: 0: no effect; 1: very slightly affected; 2: slightly affected; 3: moderately affected; 4: considerably affected; 5: completely killed; details: 25 days, score 0-5
Outline: as §2

Compound | Herbicidal effect, common lambsquarter ([1]; 10 g./a.) | Herbicidal effect, common lambsquarter ([1]; 20 g./a.) | Herbicidal effect, common lambsquarter ([1]; 40 g./a.) | Herbicidal effect, barnyard grass ([2]; 10 g./a.) | Herbicidal effect, barnyard grass ([2]; 20 g./a.) | Herbicidal effect, barnyard grass ([2]; 40 g./a.) | Herbicidal effect, common purslane ([3]; 10 g./a.) | Herbicidal effect, common purslane ([3]; 20 g./a.) | Herbicidal effect, common purslane ([3]; 40 g./a.) | Herbicidal effect, redroot pigweed ([4]; 10 g./a.) | Herbicidal effect, redroot pigweed ([4]; 20 g./a.) | Herbicidal effect, redroot pigweed ([4]; 40 g./a.) | Herbicidal effects, barnyard grass ([5]; 10 g/a) | Herbicidal effects, barnyard grass ([5]; 20 g/a) | Herbicidal effects, barnyard grass ([5]; 40 g/a) | Herbicidal effect, large crabgrass ([6]; 10 g./a.) | Herbicidal effect, large crabgrass ([6]; 20 g./a.) | Herbicidal effect, large crabgrass ([6]; 40 g./a.) | Herbicidal effect, radish (radish; 10 g./a.) | Herbicidal effect, radish (radish; 20 g./a.) | further results
CCCOP(=O)(SC)SCC(=O)N1CCCCC1C (stereo not drawn) [Compound 66] | 5 | 5 | 5 | 5 | 5 | 5 | 5 | 5 | 5 | 5 | 5 | 5 | 5 | 5 | 5 | 5 | 5 | 5 | 0 | 0 | Herbicidal effect, radish (radish; 40 g./a.): 1; Herbicidal effects, broad-leaved weeds ([7]; 10 g/a): 5; Herbicidal effects, broad-leaved weeds ([7]; 20 g/a): 5; Herbicidal effects, broad-leaved weeds ([7]; 40 g/a): 5; Phytotoxicity on rice (rice; 10 g/a): 0; Phytotoxicity on rice (rice; 20 g/a): 0; Phytotoxicity on rice (rice; 40 g/a): 0
CCOP(=O)(SCCC(C)C)SCC(=O)N1CCCC(C)C1 (stereo not drawn) [Compound 73] | 4 | 4 | 5 | 5 | 5 | 5 | 4 | 4 | 5 | 4 | 4 | 5 | 5 | 5 | 5 | 5 | 5 | 5 | 0 | 0 | Herbicidal effect, radish (radish; 40 g./a.): 0; Herbicidal effects, broad-leaved weeds ([7]; 10 g/a): 5; Herbicidal effects, broad-leaved weeds ([7]; 20 g/a): 5; Herbicidal effects, broad-leaved weeds ([7]; 40 g/a): 5; Phytotoxicity on rice (rice; 10 g/a): 0; Phytotoxicity on rice (rice; 20 g/a): 0; Phytotoxicity on rice (rice; 40 g/a): 0
CCCCCCSP(=O)(OCC)SCC(=O)N1CCCCC1C (stereo not drawn) [Compound 62] | 4 | 4 | 5 | 4 | 5 | 5 | 3 | 4 | 5 | 3 | 4 | 5 | 5 | 5 | 5 | 4 | 5 | 5 | 0 | 0 | Herbicidal effect, radish (radish; 40 g./a.): 0; Herbicidal effects, broad-leaved weeds ([7]; 10 g/a): 5; Herbicidal effects, broad-leaved weeds ([7]; 20 g/a): 5; Herbicidal effects, broad-leaved weeds ([7]; 40 g/a): 5; Phytotoxicity on rice (rice; 10 g/a): 0; Phytotoxicity on rice (rice; 20 g/a): 0; Phytotoxicity on rice (rice; 40 g/a): 0
CCCOP(=O)(SC)SCC(=O)N1CCCCC1CC (stereo not drawn) [Compound 83] | 5 | 5 | 5 | 5 | 5 | 5 | 5 | 5 | 5 | 5 | 5 | 5 | 5 | 5 | 5 | 5 | 5 | 5 | 0 | 1 | Herbicidal effect, radish (radish; 40 g./a.): 2; Herbicidal effects, broad-leaved weeds ([7]; 10 g/a): 5; Herbicidal effects, broad-leaved weeds ([7]; 20 g/a): 5; Herbicidal effects, broad-leaved weeds ([7]; 40 g/a): 5; Phytotoxicity on rice (rice; 10 g/a): 0; Phytotoxicity on rice (rice; 20 g/a): 0; Phytotoxicity on rice (rice; 40 g/a): 0
C=CCSP(=O)(OCCC)SCC(=O)N1CCCCC1C (stereo not drawn) [Compound 70] | 5 | 5 | 5 | 5 | 5 | 5 | 5 | 5 | 5 | 5 | 5 | 5 | 5 | 5 | 5 | 5 | 5 | 5 | 0 | 0 | Herbicidal effect, radish (radish; 40 g./a.): 0; Herbicidal effects, broad-leaved weeds ([7]; 10 g/a): 5; Herbicidal effects, broad-leaved weeds ([7]; 20 g/a): 5; Herbicidal effects, broad-leaved weeds ([7]; 40 g/a): 5; Phytotoxicity on rice (rice; 10 g/a): 0; Phytotoxicity on rice (rice; 20 g/a): 0; Phytotoxicity on rice (rice; 40 g/a): 2
CCCCOP(=O)(SCC(=O)N1CCCCC1CC)SC(C)C (stereo not drawn) [Compound 94] | 4 | 4 | 5 | 5 | 5 | 5 | 3 | 4 | 5 | 3 | 4 | 5 | 5 | 5 | 5 | 5 | 5 | 5 | 0 | 0 | Herbicidal effect, radish (radish; 40 g./a.): 0; Herbicidal effects, broad-leaved weeds ([7]; 10 g/a): 5; Herbicidal effects, broad-leaved weeds ([7]; 20 g/a): 5; Herbicidal effects, broad-leaved weeds ([7]; 40 g/a): 5; Phytotoxicity on rice (rice; 10 g/a): 0; Phytotoxicity on rice (rice; 20 g/a): 0; Phytotoxicity on rice (rice; 40 g/a): 0
CCCCOP(=O)(SCCC(C)C)SCC(=O)N1CCCCC1CC (stereo not drawn) [Compound 99] | 5 | 5 | 5 | 4 | 5 | 5 | 5 | 5 | 5 | 4 | 5 | 5 | 5 | 5 | 5 | 5 | 5 | 5 | 0 | 0 | Herbicidal effect, radish (radish; 40 g./a.): 0; Herbicidal effects, broad-leaved weeds ([7]; 10 g/a): 5; Herbicidal effects, broad-leaved weeds ([7]; 20 g/a): 5; Herbicidal effects, broad-leaved weeds ([7]; 40 g/a): 5; Phytotoxicity on rice (rice; 10 g/a): 0; Phytotoxicity on rice (rice; 20 g/a): 0; Phytotoxicity on rice (rice; 40 g/a): 0
CCCOP(=O)(SCC(=O)N1CCCCC1C)SCC(C)C (stereo not drawn) [Compound 67] | 3 | 4 | 5 | 4 | 5 | 5 | 4 | 4 | 5 | 4 | 4 | 5 | 5 | 5 | 5 | 4 | 5 | 5 | 0 | 0 | Herbicidal effect, radish (radish; 40 g./a.): 0; Herbicidal effects, broad-leaved weeds ([7]; 10 g/a): 5; Herbicidal effects, broad-leaved weeds ([7]; 20 g/a): 5; Herbicidal effects, broad-leaved weeds ([7]; 40 g/a): 5; Phytotoxicity on rice (rice; 10 g/a): 0; Phytotoxicity on rice (rice; 20 g/a): 0; Phytotoxicity on rice (rice; 40 g/a): 0
